Assay results taken from US12391737B2, “Soluble NPY2 receptor agonists” (Boehringer Ingelheim International GmbH, priority 2020, dated 2025).

Tests used:
[1] = target: T1, Human Neuropeptide Y2 Receptor (Homo sapiens, UniProt P49146); assay: Radioligand binding competition assay (RLB); conditions: Table 3, 125I-PYY(1-36) competition; read-out: Ki
T1 construct: purchased CHEMICON HTS066M
T1 sequence (P49146 1-381): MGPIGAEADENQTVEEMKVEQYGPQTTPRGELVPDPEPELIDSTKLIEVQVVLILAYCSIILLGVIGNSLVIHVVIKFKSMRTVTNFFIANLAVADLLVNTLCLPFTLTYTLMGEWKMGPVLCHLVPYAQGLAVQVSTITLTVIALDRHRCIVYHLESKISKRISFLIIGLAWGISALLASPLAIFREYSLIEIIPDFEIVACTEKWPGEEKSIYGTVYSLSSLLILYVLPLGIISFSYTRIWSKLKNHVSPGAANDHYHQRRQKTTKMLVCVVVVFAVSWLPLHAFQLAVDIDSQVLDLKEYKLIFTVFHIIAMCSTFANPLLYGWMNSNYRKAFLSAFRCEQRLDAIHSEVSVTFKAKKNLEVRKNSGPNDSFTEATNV
Procedure: The filtration RLB assay was carried out in 96-well plates in a final volume of 100 μl per well. Freeze-dried test peptides were dissolved in 100% dimethyl sulfoxide (DMSO) to stock solutions of 1 mM and serial dilutions were performed in assay buffer (50 mM HEPES, 5 mM MgCl2, 1 mM CaCl2, pH 7.4) containing 0.2% ovalbumin. […] Next, 80 μL membranes (HTS066M, ChemiSCREEN™ Human Neuropeptide Y2 Receptor Membrane Preparation, CHEMICON) were added to each well to give a final protein concentration of 0.5 μg/well. The plates were sealed and incubated at room temperature for 2 hours in a plate shaker set at 400 rpm. The incubation was stopped by vacuum filtration onto 0.5% polyethylene amine (PE) presoaked GF/C filters using a 96-well FilterMate™ harvester (Perkin Elmer) followed by four washes with 300 μl/well ice-cold wash buffer (50 mM HEPES, 500 mM NaCl, pH7.4). Filter plates were then dried for 60 min at room temperature and the bottom of the plates was sealed with backing tape UniFilter-96. Finally, 50 μl/well scintillation counter cocktail (Microscint20, Packard) was added and the radioactivity was counted in the Packard TopCount NXT scintillation counter. IC50 values (the half maximal inhibitory concentration of the agonist) were calculated by nonlinear regression analysis of sigmoidal dose-response curves.

Solubility determination = conditions: for Sol6: pH 6; for Sol7: pH 7
In short: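 Sample: TFA-salt peptide at 10 mg/ml target in 0.1 M Na diphosphate, pH 6.4 or 7.0, shaken 2 h RT, filtered, diluted to 1 mg/ml.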

CC(C)CC(=O)N[C@@H](C)C(=O)N1CCC[C@H]1C(=O)N[C@@H](CCC(=O)O)C(=O)N[C@@H](CCCCNC(=O)CCCCCNC(=O)CC[C@H](NC(=O)CCCCCCCCCCCCCCCCC(=O)O)C(=O)O)C(=O)N1CCC[C@H]1C(=O)N[C@@H](CCC(=O)O)C(=O)N[C@@H](CCC(=O)O)C(=O)N[C@@H](CC(=O)O)C(=O)N[C@@H](C)C(=O)N[C@H](C(=O)N1CCC[C@H]1C(=O)N[C@@H](CCC(=O)O)C(=O)N[C@@H](CCC(=O)O)C(=O)N[C@@H](CC(C)C)C(=O)N[C@@H](CCC(N)=O)C(=O)N[C@@H](CCCNC(=N)N)C(=O)N[C@@H](Cc1ccc(O)cc1)C(=O)N[C@@H](Cc1ccc(O)cc1)C(=O)N[C@H](C(=O)N[C@@H](CO)C(=O)N[C@@H](CC(C)C)C(=O)N[C@@H](CCCNC(=N)N)C(=O)N[C@@H](Cc1c[nH]cn1)C(=O)N[C@@H](Cc1ccc(O)cc1)C(=O)N[C@@H](Cc1ccc(O)cc1)C(=O)N[C@@H](CC(N)=O)C(=O)N[C@@H](Cc1c[nH]c2ccccc12)C(=O)N[C@@H](CC(C)C)C(=O)N[C@@H](CCC(N)=O)C(=O)N[C@@H](CCCNC(=N)N)C(=O)N[C@@H](CCC(N)=O)C(=O)N[C@@H](CCCNC(=N)N)C(=O)N[C@@H](Cc1ccc(O)cc1)C(N)=O)C(C)C)[C@@H](C)O [Compound 188, N{alpha-4}-(3-methylbutanoyl)-N{epsilon-7}-(6-[(4S)-4-carboxy-4-(17-carboxyheptadecanamido)butanamido]hexanoyl)-[4A,7K,9E,13T,18Q,22V,28Y,30W,31L,32Q]-hPYY(4-36)]
Ki [1]: 5.46 nM
Sol6 (Solubility determination): 9.5 mg/mL
Sol7 (Solubility determination): 9.8 mg/mL

CC[C@H](C)[C@H](NC(=O)[C@H](Cc1ccc(O)cc1)NC(=O)[C@H](Cc1ccc(O)cc1)NC(=O)[C@H](CCCNC(=N)N)NC(=O)[C@H](CCC(N)=O)NC(=O)[C@H](CC(C)C)NC(=O)[C@H](CCC(=O)O)NC(=O)[C@H](CCC(=O)O)NC(=O)[C@@H]1CCCN1C(=O)[C@@H](NC(=O)[C@H](C)NC(=O)[C@H](C)NC(=O)[C@H](CCC(=O)O)NC(=O)[C@H](CCC(=O)O)NC(=O)[C@@H]1CCCN1C(=O)[C@H](CCCCNC(=O)CCCCCNC(=O)CC[C@H](NC(=O)CCCCCCCCCCCCCCCCC(=O)O)C(=O)O)NC(=O)[C@H](C)NC(=O)[C@@H]1CCCN1C(=O)[C@H](C)NC(=O)CC(C)C)[C@@H](C)O)C(=O)N[C@@H](CO)C(=O)N[C@@H](CC(C)C)C(=O)N[C@@H](CCCNC(=N)N)C(=O)N[C@@H](Cc1c[nH]cn1)C(=O)N[C@@H](Cc1ccc(O)cc1)C(=O)N[C@@H](Cc1ccc(O)cc1)C(=O)N[C@@H](CC(N)=O)C(=O)N[C@@H](Cc1c[nH]c2ccccc12)C(=O)N[C@@H](CC(C)C)C(=O)N[C@H](C(=O)N[C@@H](CCCNC(=N)N)C(=O)N[C@@H](CCC(N)=O)C(=O)N[C@@H](CCCNC(=N)N)C(=O)N[C@@H](Cc1ccc(O)cc1)C(N)=O)[C@@H](C)O [Compound 48, N{alpha-4}-(3-methylbutanoyl)-N{epsilon-7}-(6-[(4S)-4-carboxy-4-(17-carboxyheptadecanamido)butanamido]hexanoyl)-[4A,6A,7K,9E,11A,13T,18Q,22I,28Y,30W,31L]-hPYY(4-36)]
Ki [1]: 1.54 nM
Sol6 (Solubility determination): 0.0 mg/mL
Sol7 (Solubility determination): 0.3 mg/mL

CC(C)CC(=O)N[C@@H](C)C(=O)N1CCC[C@H]1C(=O)N[C@@H](CCC(=O)O)C(=O)N[C@@H](CCCCNC(=O)CCCCCNC(=O)CC[C@H](NC(=O)CCCCCCCCCCCCCCCCC(=O)O)C(=O)O)C(=O)N1CCC[C@H]1C(=O)N[C@@H](CCC(=O)O)C(=O)N[C@@H](CCC(=O)O)C(=O)N[C@@H](CC(=O)O)C(=O)N[C@@H](C)C(=O)N[C@@H](CCC(=O)O)C(=O)N1CCC[C@H]1C(=O)N[C@@H](CCC(=O)O)C(=O)N[C@@H](CCC(=O)O)C(=O)N[C@@H](CO)C(=O)N[C@@H](CCC(N)=O)C(=O)N[C@@H](CCCNC(=N)N)C(=O)N[C@@H](Cc1ccc(O)cc1)C(=O)N[C@@H](Cc1ccc(O)cc1)C(=O)N[C@H](C(=O)N[C@@H](CO)C(=O)N[C@@H](CC(C)C)C(=O)N[C@@H](CCCNC(=N)N)C(=O)N[C@@H](Cc1c[nH]cn1)C(=O)N[C@@H](Cc1ccc(O)cc1)C(=O)N[C@@H](Cc1ccc(O)cc1)C(=O)N[C@@H](CC(N)=O)C(=O)N[C@@H](Cc1c[nH]c2ccccc12)C(=O)N[C@@H](CC(C)C)C(=O)N[C@H](C(=O)N[C@@H](CCCNC(=N)N)C(=O)N[C@@H](CCC(N)=O)C(=O)N[C@@H](CCCNC(=N)N)C(=O)N[C@@H](Cc1ccc(O)cc1)C(N)=O)[C@@H](C)O)C(C)C [Compound 27, N{alpha-4}-(3-methylbutanoyl)-N{epsilon-7}-(6-[(4S)-4-carboxy-4-(17-carboxyheptadecanamido)butanamido]hexanoyl)[4A,7K,9E,13E,17S,18Q,22V,28Y,30W,31L]-hPYY(4-36)]
Ki [1]: 10.5 nM
Sol6 (Solubility determination): 9.1 mg/mL
Sol7 (Solubility determination): 9.4 mg/mL

CC(C)CC(=O)N[C@@H](C)C(=O)N1CCC[C@H]1C(=O)N[C@@H](CCC(=O)O)C(=O)N[C@@H](CCCCNC(=O)CCCCCNC(=O)CC[C@H](NC(=O)CCCCCCCCCCCCCCCCC(=O)O)C(=O)O)C(=O)N1CCC[C@H]1C(=O)N[C@@H](CCC(=O)O)C(=O)N[C@@H](CCC(=O)O)C(=O)N[C@@H](CC(=O)O)C(=O)N[C@@H](C)C(=O)N[C@H](C(=O)N1CCC[C@H]1C(=O)N[C@@H](CCC(=O)O)C(=O)N[C@@H](CCC(=O)O)C(=O)N[C@@H](CC(C)C)C(=O)N[C@@H](CCC(N)=O)C(=O)N[C@@H](CCCNC(=N)N)C(=O)N[C@@H](CCC(N)=O)C(=O)N[C@@H](Cc1ccc(O)cc1)C(=O)N[C@H](C(=O)N[C@@H](CO)C(=O)N[C@@H](CC(C)C)C(=O)N[C@@H](CCCNC(=N)N)C(=O)N[C@@H](Cc1c[nH]cn1)C(=O)N[C@@H](Cc1ccc(O)cc1)C(=O)N[C@@H](Cc1ccc(O)cc1)C(=O)N[C@@H](CC(N)=O)C(=O)N[C@@H](Cc1c[nH]c2ccccc12)C(=O)N[C@@H](CC(C)C)C(=O)N[C@H](C(=O)N[C@@H](CCCNC(=N)N)C(=O)N[C@@H](CCC(N)=O)C(=O)N[C@@H](CCCNC(=N)N)C(=O)N[C@@H](Cc1ccc(O)cc1)C(N)=O)[C@@H](C)O)C(C)C)[C@@H](C)O [Compound 88, N{alpha-4}-(3-methylbutanoyl)-N{epsilon-7}-(6-[(4S)-4-carboxy-4-(17-carboxyheptadecanamido)butanamido]hexanoyl)-[4A,7K,9E,13T,18Q,20Q,22V,28Y,30W,31L]-hPYY(4-36)]
Ki [1]: 16.3 nM
Sol6 (Solubility determination): 8.7 mg/mL
Sol7 (Solubility determination): 8.9 mg/mL

CC[C@H](C)[C@H](NC(=O)[C@H](CCC(=O)O)NC(=O)[C@H](CCC(=O)O)NC(=O)[C@@H]1CCCN1C(=O)[C@H](CC(C)C)NC(=O)[C@H](C)NC(=O)[C@H](CC(=O)O)NC(=O)[C@H](CCC(=O)O)NC(=O)[C@H](CCC(=O)O)NC(=O)[C@@H]1CCCN1C(=O)[C@H](CCCCNC(=O)CCCCCNC(=O)CC[C@H](NC(=O)CCCCCCCCCCCCCCCCC(=O)O)C(=O)O)NC(=O)[C@H](CCC(=O)O)NC(=O)[C@@H]1CCCN1C(=O)[C@H](C)NC(=O)CC(C)C)C(=O)N[C@@H](CCC(N)=O)C(=O)N[C@@H](CCCNC(=N)N)C(=O)N[C@@H](Cc1ccc(O)cc1)C(=O)N[C@@H](Cc1ccc(O)cc1)C(=O)N[C@H](C(=O)N[C@@H](CO)C(=O)N[C@@H](CC(C)C)C(=O)N[C@@H](CCCNC(=N)N)C(=O)N[C@@H](Cc1c[nH]cn1)C(=O)N[C@@H](Cc1ccc(O)cc1)C(=O)N[C@@H](Cc1ccc(O)cc1)C(=O)N[C@@H](CC(N)=O)C(=O)N[C@@H](Cc1c[nH]c2ccccc12)C(=O)N[C@@H](CC(C)C)C(=O)N[C@H](C(=O)N[C@@H](CCCNC(=N)N)C(=O)N[C@@H](CCC(N)=O)C(=O)N[C@@H](CCCNC(=N)N)C(=O)N[C@@H](Cc1ccc(O)cc1)C(N)=O)[C@@H](C)O)C(C)C [Compound 142, N{alpha-4}-(3-methylbutanoyl)-N{epsilon-7}-(6-[(4S)-4-carboxy-4-(17-carboxyheptadecanamido)butanamido]hexanoyl)-[4A,7K,9E,13L,17I,18Q,22V,28Y,30W,31L]-hPYY(4-36)]
Ki [1]: 3.97 nM
Sol6 (Solubility determination): >10.0 mg/mL
Sol7 (Solubility determination): >10.0 mg/mL
